From patent publication US4725578A, “Compounds having therapeutic effect and the preparation thereof” (Tobishi Pharmaceutical Co., Ltd., priority 1986, dated 1988)
Entries after “also recorded” stand apart in the source; their conditions may differ.

Legend:
MOPC-104E = MOPC-104E (ip-ip), survival T/C; assay type: in vivo
Method: (§1) In the Table, the symbol T/C % means Treatment/Control %, that is the increase in life when the control is 100. The values are obtained by implanting tumor cells to groups of mice (or rats), administering the compound being tested in various amounts every 24 hours after the implantation of the tumor cells and then calculating the ratio, the median survival time of the group to which the compound has been administered to the survival of the control, multiplied by a factor of 100. This method is used in the screening of U.S. National Cancer Institute.

B-16 melanoma = assay: B16 melanoma (ip-ip), survival T/C; assay type: in vivo, mice
Method: (§2) In the Table, the symbol T/C % means Treatment/Control %, that is the increase in life when the control is 100. The values are obtained by implanting tumor cells to groups of mice (or rats), administering the compound being tested in various amounts every 24 hours after the implantation of the tumor cells and then calculating the ratio, the median survival time of the group to which the compound has been administered to the survival of the control, multiplied by a factor of 100. This method is used in the screening of U.S. National Cancer Institute. […]
(§3) In Table 7, the symbol "i.P.-i.P." means that the tumor cells are implanted intraperitoneally and the compounds being tested are also administered intraperitoneally. The symbol "TR" is the therapeutic ratio obtained by dividing the dose which provides a maximum T/C value, by the dose which provides a minimum T/C value.

Erlich carcinoma = Erlich carcinoma (sc-ip), inhibition; assay type: in vivo
L-1210 cells = assay: Antineoplastic action against implanted L-1210 cells (ip-ip), survival T/C; assay type: in vivo, CDFl mice
Method: In this animal test, the antineoplastic action against the implanted tumor was examined in lower animals, in vivo, in respect of the compounds according to the present invention, by using CDFl mice.
To the peritoneal cavity of each group of mice consisting of six CDFl mice per group, 10^6 /0.1 ml of P-388 cells or 10^5 /0.1 ml of L-1210 cells were implanted. […] While to the control groups of CDFl mice, P-388 and L-1210 cells were implanted in the same manner and they were bred without administration of the compounds.
as §1, §3

C-1498 = C-1498 (ip-ip), survival T/C; assay type: in vivo
Method: as §1

P-388 cells = assay: Antineoplastic action against implanted P-388 cells (ip-ip), survival T/C; assay type: in vivo, CDFl mice; conditions: for T/C: P 388 (ip-ip), × 5; for T/C % (Treatment/Control %): Table 6, P388, intraperitoneal
Method: To the peritoneal cavity of each group of mice consisting of six CDFl mice per group, 10^6 /0.1 ml of P-388 cells or 10^5 /0.1 ml of L-1210 cells were implanted. […]
In the Table, the symbol T/C % means Treatment/Control %, that is the increase in life when the control is 100. […] This method is used in the screening of U.S. National Cancer Institute.
as §3

P 388 = P 388 (ip-iv), survival T/C; assay type: in vivo, mice
Method: as §1
(§4) In Table 9, "iv" and "sc" means that the administration of the compounds is carried out intravenously and the implantation of the tumor cells is carried out subcutaneously.

Yoshida sarcoma [1] = assay: Yoshida sarcoma (ip-iv), survival T/C; assay type: in vivo
Method: as §1, §4

Yoshida sarcoma [2] = assay: Yoshida sarcoma (ip-ip), survival T/C; assay type: in vivo
Method: as §1

Lewis Lung Carcinoma = Lewis Lung Carcinoma (sc-ip), inhibition; assay type: in vivo
MM2 = MM2 (ip-ip), survival T/C; assay type: in vivo, mice
Method: as §2, §3
The term in Table 7, last column "3/6 60<", means that 3 mice out of 6 mice continue to live more than 60 days after the implantation of the tumor cells.

Colon. 38 = Colon. 38 (sc-ip), inhibition; assay type: in vivo; conditions: 4 mg/kg × 11, after 17 days
Colon 26 = Colon 26 (ip-ip), survival T/C; assay type: in vivo
Method: as §1

[3] = Neuropharmacological multidimentional observation (modified Arwin and Smith method); assay type: in vivo, 4-weeks CD-1 (IRC) mice; conditions: intraperitoneal, 1 to 20 mg/kg, observed every 30 minutes for 180 minutes, compared with patterns of known medicines
Method: In this test, other pharmacological effects which may be obtained by these compounds were investigated.
Each compound of the invention was intraperitoneally administered to 4-weeks CD-1 (IRC) mice (Nippon Charles Liver K.K.) in the dose of 1 to 20 mg/kg with using mice groups consisting of three mice per group. […] The observation was carried out according to the modified Arwin method and Smith method, i.e., neuropharmacological multidimentional observation method.
Making a comparison between the symptom observed and the pattern of the pharmacological action due to the known medicines, it has been discovered that each compound of the invention has the following pharmacological effect.

[4] = Toxicity test, lethal dose (Litchfield-Wilcoxon); assay type: in vivo, male 4-weeks CD-1 (ICR) mice; conditions: suspension in 0.5% CMC, 7 days observation
Method: With respect to the compounds of this invention, the lethal dose was determined as follows.
By using male 4-weeks CD-1 (ICR) mice consisting of 5 to 10 mice per group, the desired amount of each compound of this invention was suspended in 0.5% CMC solution and the resultant suspension was administered to each mouse intraperitoneally or intravenously. Observing the life or death as well as the general symptome during 7 days after the administration of the compounds, the value of LD50 for each compounds was estimated from the lethal population observed on the basis of the Litchfield-Wilcoxon method.

## CCCCCC(=O)Oc1ccc2cc1Oc1ccc(cc1)CC1C(=O)N(C)C(C2)C(=O)NC(C)C(=O)NC(C)C(=O)N(C)C(Cc2ccc(OC)cc2)C(=O)NC(C)C(=O)N1C (stereo not drawn) [Ex. 21, caproate of TPC-A]
MOPC-104E; 2 mg/kg × 9 times
  T/C: 120.5%
MOPC-104E; 5 mg/kg × 9 times
  T/C: 136.8%
B-16 melanoma; (see Table 7)
  effectiveness against B-16 melanoma: effective
B-16 melanoma; Table 7, dose 0.5 mg/kg
  B16 (i.P. - i.P.) T/C (%): 143.5%
B-16 melanoma; Table 7, dose 2 mg/kg
  B16 (i.P. - i.P.) T/C (%): 152.0%
B-16 melanoma; Table 7, dose 5 mg/kg
  B16 (i.P. - i.P.) T/C (%): 165.5%
Erlich carcinoma; 8 mg/kg × 11, after 14 days
  Inhibition: 58.5%
L-1210 cells; Table 7, dose 0.5 mg/kg
  L1210 (i.P. - i.P.) T/C (%): 115.6%
L-1210 cells; Table 7, dose 2 mg/kg
  L1210 (i.P. - i.P.) T/C (%): 126.6%
L-1210 cells; Table 7, dose 10 mg/kg
  L1210 (i.P. - i.P.) T/C (%): 67.3%
C-1498; 2 mg/kg × 5 days
  T/C: 110.2%
C-1498; 8 mg/kg × 5 days
  T/C: 122.2%
P-388 cells; in combination: Mitomycin 0.5 mg/kg + Ex 21 0.5 mg/kg
  T/C: 246.8%
P-388 cells; in combination: Mitomycin 0.5 mg/kg + Ex 21 5 mg/kg
  T/C: 270.3%
P-388 cells; dose 0.05 mg/kg
  T/C % (Treatment/Control %): 133.6%
P-388 cells; dose 0.5 mg/kg
  T/C % (Treatment/Control %): 143.2%
P-388 cells; dose 2 mg/kg
  T/C % (Treatment/Control %): 151.6%
P-388 cells; dose 10 mg/kg
  T/C % (Treatment/Control %): 197.2%
P-388 cells; Table 7, dose 0.01 mg/kg
  P388 (i.P. - i.P.) T/C (%): 133.7%
P-388 cells; Table 7, dose 0.1 mg/kg
  P388 (i.P. - i.P.) T/C (%): 135.9%
P-388 cells; Table 7, dose 2 mg/kg
  P388 (i.P. - i.P.) T/C (%): 152.2%
P 388; 5.56 mg/kg × 9
  T/C: 117.2%
P 388; 6.94 mg/kg × 9
  T/C: 120.4%
Yoshida sarcoma [1]; 0.83 mg/kg × 9
  T/C: 116.7%
Yoshida sarcoma [1]; 1.11 mg/kg × 9
  T/C: 124.8%
Yoshida sarcoma [2]; 0.1 mg/kg × 5
  T/C: 167.0%
Yoshida sarcoma [2]; 0.5 mg/kg × 5
  T/C: 200.0%
Yoshida sarcoma [2]; 1 mg/kg × 5
  T/C: 213.3%
  animals living more than 30 days (30<): 2/6
Yoshida sarcoma [2]; 2.5 mg/kg × 5
  T/C: 167.0%
Lewis Lung Carcinoma; 0.5 mg/kg × 25, after 17 days
  Inhibition: 24.3%
MM2; (see Table 7)
  effectiveness against MM2: effective
MM2; Table 7, MM2 (i.P. - i.P.), dose 2 mg/kg
  mice continuing to live more than 60 days after implantation (60<): 2/6
MM2; Table 7, dose 0.5 mg/kg
  MM2 (i.P. - i.P.) T/C (%): 112.1%
MM2; Table 7, dose 2 mg/kg
  MM2 (i.P. - i.P.) T/C (%): 127.3%
MM2; Table 7, dose 10 mg/kg
  MM2 (i.P. - i.P.) T/C (%): 93.9%

## COc1ccc(C[C@H]2C(=O)N[C@@H](C)C(=O)N(C)[C@H]3Cc4ccc(cc4)Oc4cc(ccc4OC)C[C@@H](C(=O)N[C@H](C)C(=O)N[C@@H](C)C(=O)N2C)N(C)C3=O)cc1 [Methylether of TPC-A]
B-16 melanoma; Table 7, dose 0.25 mg/kg
  B16 (i.P. - i.P.) T/C (%): 133.8%
B-16 melanoma; Table 7, dose 1 mg/kg
  B16 (i.P. - i.P.) T/C (%): 135.3%
B-16 melanoma; Table 7, dose 2 mg/kg
  B16 (i.P. - i.P.) T/C (%): 139.1%
B-16 melanoma; Table 7, dose 4 mg/kg
  B16 (i.P. - i.P.) T/C (%): 143.0%
Colon. 38
  Inhibition: 70.1%
Colon 26; 1 mg/kg × 9
  T/C: 113.6%
Colon 26; 2 mg/kg × 9
  T/C: 125.0%
Colon 26; 4 mg/kg × 9
  T/C: 125.9%
Erlich carcinoma; 2 mg/kg × 11, after 14 days
  Inhibition: 60.5%
L-1210 cells; Table 7, dose 0.01 mg/kg
  L1210 (i.P. - i.P.) T/C (%): 105.6%
L-1210 cells; Table 7, dose 0.5 mg/kg
  L1210 (i.P. - i.P.) T/C (%): 118.6%
L-1210 cells; Table 7, dose 1 mg/kg
  L1210 (i.P. - i.P.) T/C (%): 120.7%
L-1210 cells; Table 7, dose 2 mg/kg
  L1210 (i.P. - i.P.) T/C (%): 129.3%
L-1210 cells; Table 7, dose 5 mg/kg
  L1210 (i.P. - i.P.) T/C (%): 137.3%
P-388 cells; dose 0.01 mg/kg (printed in the 0.05 column with note "dose, 0.01")
  T/C % (Treatment/Control %): 130.1%
P-388 cells; dose 0.5 mg/kg
  T/C % (Treatment/Control %): 156.7%
P-388 cells; dose 2 mg/kg
  T/C % (Treatment/Control %): 164.2%
P-388 cells; dose 4 mg/kg
  T/C % (Treatment/Control %): 173.6%
P-388 cells; Table 7, dose 0.01 mg/kg
  P388 (i.P. - i.P.) T/C (%): 130.1%
P-388 cells; Table 7, dose 0.5 mg/kg
  P388 (i.P. - i.P.) T/C (%): 156.7%
P-388 cells; Table 7, dose 1 mg/kg
  P388 (i.P. - i.P.) T/C (%): 159.9%
P-388 cells; Table 7, dose 2 mg/kg
  P388 (i.P. - i.P.) T/C (%): 164.2%
P-388 cells; Table 7, dose 4 mg/kg
  P388 (i.P. - i.P.) T/C (%): 173.6%
P 388; 0.56 mg/kg × 9
  T/C: 115.7%
P 388; 2.22 mg/kg × 9
  T/C: 160.8%
Lewis Lung Carcinoma; 4 mg/kg × 11, after 17 days
  Inhibition: 51.1%
[3]
  Pharmacological effect estinated: emetic action; also recorded: anorexigenic action
MM2; Table 7, dose 0.2 mg/kg
  MM2 (i.P. - i.P.) T/C (%): 103.1%
MM2; Table 7, dose 1 mg/kg
  MM2 (i.P. - i.P.) T/C (%): 103.1%
MM2; Table 7, dose 2 mg/kg
  MM2 (i.P. - i.P.) T/C (%): 118.4%
MM2; Table 7, dose 5 mg/kg
  MM2 (i.P. - i.P.) T/C (%): 90.8%
[4]; intraperitoneal
  LD50 and 95% Confidence Limit: 10.0(7.0-14.3) mg/kg
[4]; intravenous
  LD50 and 95% Confidence Limit: 16.5(12.6-21.5) mg/kg
